Literature values, collected in article PMC11243490, “Enzymatic Fructosylation of Phenolic Compounds: A New Alternative for the Development of Antidiabetic Drugs” (Molecules, 2024).
Values after ≈ are worked out from the molar mass of the structure shown.

Experiments:
[1] = set-up: method as in PMID 30638505, PMID 33992405, doi:10.1016/j.imu.2022.100880; conditions: reported properties
[2] = reported properties
[3] = set-up: method as in PMID 30638505, PMID 33992405, doi:10.1016/j.imu.2022.100880; conditions: reported properties; remark: listed apart in the source
[4] = set-up: method as in PMID 30638505, PMID 33992405, doi:10.1016/j.imu.2022.100880; conditions: reported properties; remark: listed apart in the source
[5] = test system: key proteins in type 2 diabetes; set-up: method as in PMID 32258479; conditions: strongest interactions
[6] = test system: EGFR, SRC, ESR1, and HSP90AA1 diabetic proteins; set-up: method as in PMID 37754241; conditions: range over EGFR
CYP2C9 = test system: CYP2C9; set-up: method as in PMID 27518169; conditions: human liver microsomes
CYP1A2 = test system: CYP1A2; set-up: method as in PMID 27518169; conditions: human liver microsomes

Row | SMILES | Solubility [1] [µg/mL] | DPPH % Free Radical Scavenging Activity [2] [%] | further results
1 | O=C(CCc1ccc(O)cc1)c1c(O)cc(O)cc1O[C@@H]1O[C@H](CO)[C@@H](O)[C@H](O)[C@H]1O [PH, phloretin-2′-β-D-glucopyranoside] | 1930 ± 30 (≈ 4.42 mM) | 62.13 ± 1.8 | –
2 | O=c1c(-c2ccc(O)cc2)coc2c(C3OC(COC4(CO)OC(CO)C(O)C4O)C(O)C(O)C3O)c(O)ccc12 [MFP, β-D-fructofuranosyl-β-(2→6)-puerarin] | 16200 ± 1700 (≈ 28 mM) | 26.2 ± 1.3 | –
3 | COc1cc(/C=C/C(=O)OC2(CO)OCC(O)C(O)C2O)ccc1O [MFF, β-D-Fructopyranosyl-β-(2→6)-ferulate] | 8690 ± 450 (≈ 24.4 mM) | 17.16 ± 0.81 | ABTS % Free Radical Scavenging Activity [3]: 90.95 ± 0.18%; NO % Free Radical Scavenging Activity [4]: 3.27 ± 1.02%
4 | OC[C@H]1O[C@@H](Oc2cc3c(O)cc(O)cc3[o+]c2-c2cc(O)c(O)c(O)c2)[C@H](O)[C@@H](O)[C@@H]1O [delphinidin 3-glucoside] | – | – | free binding energies [5]: −7.3 to −6.10
5 | OC[C@H]1O[C@@H](Oc2cc3c(O)cc(O)cc3[o+]c2-c2ccc(O)c(O)c2)[C@H](O)[C@@H](O)[C@@H]1O [cyanidin 3-glucoside] | – | – | free binding energies [5]: −7.3 to −6.10
6 | O=C(CCc1ccc(O)cc1)c1c(O)cc(O)cc1OC1OC(COC2(CO)OC(CO)C(O)C2O)C(O)C(O)C1O [MFPh, β-D-fructofuranosyl-β-(2→6)-phlorizin] | 30570 ± 100 (≈ 51.1 mM) | 44.56 ± 8.4 | –
7 | CCCCCc1cc(O)c2c(c1)OC(C)(C)c1ccc(C)cc1-2 [cannabinol] | – | – | free binding energy [6]: -7.44 to -6.38 kcal/mol
8 | COc1cc(C=CC(=O)O)ccc1O [FA, 4-hydroxy-3-methoxycinnamic acid] | – | 70.04 ± 2.3 | ABTS % Free Radical Scavenging Activity [3]: 90.69 ± 0.14%; NO % Free Radical Scavenging Activity [4]: 22.21 ± 1.39%
9 | O=C(O[C@@H]1Cc2c(O)cc(O)cc2O[C@@H]1c1cc(O)c(O)c(O)c1)c1cc(O)c(O)c(O)c1 [EGCG, epigallocatechin gallate] | – | – | inhibition of CYP2C9 (CYP2C9): 7.60 µM; inhibition of CYP1A2 (CYP1A2): 8.93 µM
10 | O=c1c(-c2ccc(O)cc2)coc2c([C@@H]3O[C@H](CO)[C@@H](O)[C@H](O)[C@H]3O)c(O)ccc12 [PU, daidzein-8-C-glucoside] | 700 ± 90 (≈ 1.68 mM) | 33.3 | –
